Measurements from patent publication US20180099931A1 (AbbVie S.à.r.l., priority 2016, published 2018).
Where two headings read alike, the source gives them in different places.

Target: T1, F508delCFTR (Homo sapiens, UniProt P13569, DEL508-508)
T1 construct: expressed in transfected cells; host or cells: CFBE41o- human lung-derived epithelial cells (CFBE4lo-F508delCFTR-HRP), doxycycline-inducible
Experiment: Cell Surface Expression-Horse Radish Peroxidase (CSE-HRP) Assay;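 on Maximum % activity (with co-corrector): co-corrector and positive control are both the same reference corrector at 2 µM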;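 on Maximum % activity (without co-corrector): percent of the 2 µM on-plate positive control corrector response above DMSO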
Type: cell-based
Settings: for Emax / Maximum % activity (with co-corrector): maximum at any tested concentration, normalized to on-plate positive control; for Emax: read-out: Maximum % activity (without co-corrector)

[1] = test compound without co-corrector
[2] = test compound without co-corrector, read-out: EC50 (without co-corrector)
[3] = with co-corrector (2 μM of 3-[(2R,4R)-4-({[1-(2,2-difluoro-1,3-benzodioxol-5-yl)cyclopropyl]carbonyl}amino)-7-methoxy-3,4-dihydro-2H-chromen-2-yl]benzoic acid)
[4] = with co-corrector (2 μM of 3-[(2R,4R)-4-({[1-(2,2-difluoro-1,3-benzodioxol-5-yl)cyclopropyl]carbonyl}amino)-7-methoxy-3,4-dihydro-2H-chromen-2-yl]benzoic acid), read-out: EC50 (with co-corrector)
[5] = CSE-HRP, test compound without co-corrector, read-out: EC50 (without co-corrector)
[6] = CSE-HRP, with co-corrector (2 μM of 3-[(2R,4R)-4-({[1-(2,2-difluoro-1,3-benzodioxol-5-yl)cyclopropyl]carbonyl}amino)-7-methoxy-3,4-dihydro-2H-chromen-2-yl]benzoic acid), read-out: EC50 (with co-corrector)
[7] = CSE-HRP, with co-corrector (2 μM)

T1 sequence (P13569 with tags, fused parts or gaps DEL508-508): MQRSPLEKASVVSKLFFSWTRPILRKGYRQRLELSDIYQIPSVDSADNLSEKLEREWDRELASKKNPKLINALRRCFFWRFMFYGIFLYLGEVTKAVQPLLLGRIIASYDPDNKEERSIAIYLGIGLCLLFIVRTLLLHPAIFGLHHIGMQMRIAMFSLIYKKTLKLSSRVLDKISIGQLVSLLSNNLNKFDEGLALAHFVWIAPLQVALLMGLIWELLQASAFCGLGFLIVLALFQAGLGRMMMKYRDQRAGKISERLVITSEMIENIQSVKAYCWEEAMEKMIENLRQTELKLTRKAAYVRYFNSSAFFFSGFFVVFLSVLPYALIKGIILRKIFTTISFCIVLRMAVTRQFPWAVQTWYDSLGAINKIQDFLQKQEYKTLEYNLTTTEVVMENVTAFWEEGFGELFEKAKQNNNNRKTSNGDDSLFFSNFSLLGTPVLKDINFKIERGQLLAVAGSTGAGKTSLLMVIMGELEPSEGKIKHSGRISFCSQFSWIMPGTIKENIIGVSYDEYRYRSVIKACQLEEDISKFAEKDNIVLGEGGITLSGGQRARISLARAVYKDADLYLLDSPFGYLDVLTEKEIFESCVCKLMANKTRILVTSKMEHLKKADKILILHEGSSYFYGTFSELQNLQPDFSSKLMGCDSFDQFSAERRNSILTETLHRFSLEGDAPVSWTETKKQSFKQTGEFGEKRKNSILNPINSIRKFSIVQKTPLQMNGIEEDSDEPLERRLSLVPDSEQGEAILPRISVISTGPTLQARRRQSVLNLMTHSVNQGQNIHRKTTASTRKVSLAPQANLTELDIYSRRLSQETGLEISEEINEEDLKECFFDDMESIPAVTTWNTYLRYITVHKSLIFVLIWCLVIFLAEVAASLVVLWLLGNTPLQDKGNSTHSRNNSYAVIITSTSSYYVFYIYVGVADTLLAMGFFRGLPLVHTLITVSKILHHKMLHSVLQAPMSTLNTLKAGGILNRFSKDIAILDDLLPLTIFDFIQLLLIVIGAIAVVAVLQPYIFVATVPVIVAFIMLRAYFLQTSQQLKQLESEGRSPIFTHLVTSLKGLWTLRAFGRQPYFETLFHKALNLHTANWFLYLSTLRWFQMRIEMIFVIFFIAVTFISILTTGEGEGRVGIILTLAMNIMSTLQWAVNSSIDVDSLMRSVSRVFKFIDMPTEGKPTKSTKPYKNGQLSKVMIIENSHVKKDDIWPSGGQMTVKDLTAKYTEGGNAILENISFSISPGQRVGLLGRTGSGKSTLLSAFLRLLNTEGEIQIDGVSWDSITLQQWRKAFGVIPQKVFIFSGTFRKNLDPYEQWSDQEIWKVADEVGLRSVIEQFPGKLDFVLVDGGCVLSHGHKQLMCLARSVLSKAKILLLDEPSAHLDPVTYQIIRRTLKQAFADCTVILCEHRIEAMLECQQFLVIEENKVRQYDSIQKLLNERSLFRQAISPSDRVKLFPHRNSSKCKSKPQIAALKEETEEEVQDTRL

Compound	Emax [1] [%]	EC50 [2] [nM]	Maximum % activity (with co-corrector) [3]	EC50 [4] [nM]	Maximum % activity (with co-corrector) (with co-corrector (2 μM))	Emax (without co-corrector) [%]	EC50 [5] [nM]	EC50 [6] [nM]	Maximum % activity (with co-corrector) [7]	Emax (CSE-HRP, without co-corrector) [%]
COc1nc(C(C)(C)C)ccc1CN[C@H]1[C@H](C(C)(C)C)[C@@H](C(=O)O)N(C(=O)OC(C)C)[C@H]1c1cccnc1OC [Example I-234]		1000 to 10000		< 1000	+++ (≥350)	100 to 200				
COc1ccccc1C1(CN[C@H]2[C@H](C(C)(C)C)[C@@H](C(=O)O)N(C(=O)OC(C)C)[C@H]2c2ccccc2)CCOCC1 [Example I-267]							> 10000	1000 to 10000	+ (<150)	< 100
COc1ccc(C(C)(C)C)cc1CN[C@H]1[C@H](C(C)(C)C)[C@@H](C(=O)O)N(C(=O)[C@@H]2CCCO2)[C@H]1c1ccccc1 [Example 34, (2S,3S,4S,5S)-3-tert-butyl-4-{[(5-tert-butyl-2-methoxyphenyl)methyl]amino}-1-[(2S)-oxolane-2-carbonyl]-5-phenylpyrrolidine-2-carboxylic acid]		1000 to 10000		1000 to 10000	+++ (≥350)	> 200				
COc1cc(C(F)(F)F)ccc1CN[C@@H]1[C@@H](C(C)(C)C)[C@H](C(=O)O)N(C(=O)C2CCCCO2)[C@@H]1c1ccccc1N(C)C (mixture of isomers) [Example I-25]		1000 to 10000		< 1000	+++ (≥350)	> 200				
COc1ccc(C(C)(C)C)cc1CN[C@H]1[C@H](C(C)(C)C)[C@@H](C(=O)O)N(C(=O)[C@@H](C)Oc2ccccc2)[C@H]1c1ccccc1 [Example I-137]		1000 to 10000		1000 to 10000	+++ (≥350)	> 200				
COc1cnc(C2CCC2)cc1CN[C@H]1[C@H](C(C)(C)C)[C@@H](C(=O)O)N(C(=O)C2CCCCC2)[C@H]1c1ccccc1 [Example I-168]		1000 to 10000		1000 to 10000	+++ (≥350)	< 100				
COc1ncc(C2CCCCC2)cc1CN[C@H]1[C@H](C(C)(C)C)[C@@H](C(=O)O)N(C(=O)C2CCCCC2)[C@H]1c1ccccc1 [Example I-72]		< 1000		< 1000	+++ (≥350)	> 200				
COc1ncc(C2CCC2)cc1CN[C@H]1[C@H](C(C)(C)C)[C@@H](C(=O)O)N(C(=O)[C@@H]2CCCO2)[C@H]1c1ccccc1Br [Example 106, (2S,3S,4S,5S)-5-(2-bromophenyl)-3-tert-butyl-4-{[(5-cyclobutyl-2-methoxypyridin-3-yl)methyl]amino}-1-[(2S)-oxolane-2-carbonyl]pyrrolidine-2-carboxylic acid]		1000 to 10000		1000 to 10000	+++ (≥350)	100 to 200				
COc1ccc(C(C)(C)C)cc1CN[C@H]1[C@H](C(C)(C)C)[C@@H](C(=O)O)N(C(=O)C(C)n2cc(Cl)cn2)[C@H]1c1ccccc1 (stereo partly drawn) [Example I-103]		1000 to 10000		1000 to 10000	+++ (≥350)	100 to 200				

Other lines, results leading:

Emax [1] [%]	EC50 [2] [nM]	Maximum % activity (with co-corrector) [3]	EC50 [4] [nM]	Maximum % activity (with co-corrector) (with co-corrector (2 μM))	Emax (without co-corrector) [%]	EC50 [5] [nM]	EC50 [6] [nM]	Maximum % activity (with co-corrector) [7]	Emax (CSE-HRP, without co-corrector) [%]	Compound
< 100	> 10000	++ (≥150 and <350)	1000 to 10000							Cc1cc(C(F)(F)F)cc(N[C@@H]2[C@@H](C(C)(C)C)[C@H](C(=O)NS(=O)(=O)C(C)(C)C)N(C(=O)C3CCCCC3)[C@@H]2c2ccccc2)n1 (racemic) [III-50]
100 to 200	< 1000	+++ (≥350)	< 1000							COc1ncc(-c2ccc(F)cc2F)cc1CN[C@H]1[C@H](C(C)(C)C)[C@@H](C(=O)O)N(C(=O)C2CCCCC2)[C@H]1c1cccnc1N(C)C [II-406]
< 100	> 10000	++ (≥150 and <350)	1000 to 10000							COCCn1cc(C(F)(F)F)cc(CN[C@H]2[C@H](C(C)(C)C)[C@@H](C(=O)O)N(C(=O)C3CCCCC3)[C@H]2c2ccccc2)c1=O (racemic) [III-65]
100 to 200	1000 to 10000	+++ (≥350)	1000 to 10000							COc1ccc(C(C)(C)C)cc1CN[C@H]1[C@H](C(C)(C)C)[C@@H](C(=O)O)N(C(=O)c2cc(C)n(C)n2)[C@H]1c1ccccc1 [II-445]
> 200	1000 to 10000	+++ (≥350)	< 1000							COc1ccc(C2(C)CCC2)cc1CN[C@H]1[C@H](C(C)(C)C)[C@@H](C(=O)O)N(C(=O)[C@@H]2CCCO2)[C@H]1c1ccccc1C [II-578]
100 to 200	1000 to 10000	+++ (≥350)	1000 to 10000							COc1ncc(C(F)(F)F)cc1CN[C@H]1[C@H](C(C)(C)C)[C@@H](C(=O)O)N(C(=O)C2CCC(C)(C)O2)[C@H]1c1ccccc1 (stereo partly drawn) [II-434]
< 100	1000 to 10000		1000 to 10000	++ (≥150 and <350)						COc1ncc(C2CCC2)cc1CN[C@@H]1[C@@H](C(C)(C)C)[C@H](C(=O)O)N(C(=O)[C@@H]2CCCO2)[C@@H]1c1ccccc1Cl [III-236]
< 100	> 10000	+ (<150)	1000 to 10000							COc1cccc([C@@H]2[C@H](NCc3ccccc3OC(F)F)[C@@H](C(C)(C)C)[C@H](C(=O)O)N2C(=O)N(C(C)C)C(C)C)n1 (racemic) [III-59]
100 to 200	1000 to 10000		1000 to 10000	+++ (≥350)						COc1cc(C(F)(F)F)ccc1CN[C@@H]1[C@@H](C(C)(C)C)[C@H](C(=O)O)N(C(=O)OC2CCC2)[C@@H]1c1ccccc1 (racemic) [III-114]
						1000 to 10000	1000 to 10000	+++ (≥350)	100 to 200	COc1ccc(C(F)(F)F)cc1CN[C@@H]1[C@@H](C(C)(C)C)[C@H](C(=O)O)N(C(=O)C2CCCCC2)[C@@H]1c1ccccc1OC (racemic) [II-17]
						< 1000	< 1000	+++ (≥350)	> 200	COc1ccc(C(C)(C)C)cc1CN[C@H]1[C@H](C(C)(C)C)[C@@H](C(=O)O)N(C(=O)C2Cc3ccccc3CO2)[C@H]1c1ccccc1 (stereo partly drawn) [II-300]
> 200	< 1000	+++ (≥350)	< 1000							COc1ccc(C(C)(C)C)cc1CN[C@H]1[C@H](C(C)(C)C)[C@@H](C(=O)O)N(C(=O)C2CCc3cccc(OC)c3C2)[C@H]1c1ccccc1 (stereo partly drawn) [II-317]
< 100	> 10000		1000 to 10000	++ (≥150 and <350)						CC(C)(C)[C@H]1[C@H](NCc2ccc3c(c2)OC(F)(F)O3)[C@H](c2ccccc2)N(C(=O)C2CCCCC2)[C@@H]1C(=O)O [III-132]
> 200	1000 to 10000	+++ (≥350)	< 1000							COc1ccc(C2CC2)cc1CN[C@H]1[C@H](C(C)(C)C)[C@@H](C(=O)O)N(C(=O)C2CCCCC2)[C@H]1c1ccccc1 [II-352]
						1000 to 10000	1000 to 10000	+++ (≥350)	< 100	CC(C)(C)[C@@H]1[C@@H](NCc2cc(Cl)ccc2OC(F)F)[C@@H](c2ccccc2)N(C(=O)C2CCCCC2)[C@H]1C(=O)O (racemic) [II-8]
